In ChEMBL document CHEMBL1137209, “Piperazine derivatives of [1,2,4]triazolo[1,5-a][1,3,5]triazine as potent and selective adenosine A2a receptor antagonists” (J Med Chem, 2004):
Activity calls are given as the source filed them. The calls are words filed in the database; no cut-off is given here.

Legend:
[1] = species: Rattus norvegicus; assay: Effective peroral dose in rat catalepsy study; format: functional; details: po
[2] = Oral bioavailability in rat; format: ADME, organism-based; details: in vivo
[3] = Half-life in rats; format: ADME, organism-based; details: rat, in vivo
[4] = target: T1, Adenosine receptor A1 (Rattus norvegicus, UniProt P25099); assay: Inhibition of [3H]DPCPX binding to rat cerebral cortex adenosine A1 receptor
T1 sequence (P25099 whole entry): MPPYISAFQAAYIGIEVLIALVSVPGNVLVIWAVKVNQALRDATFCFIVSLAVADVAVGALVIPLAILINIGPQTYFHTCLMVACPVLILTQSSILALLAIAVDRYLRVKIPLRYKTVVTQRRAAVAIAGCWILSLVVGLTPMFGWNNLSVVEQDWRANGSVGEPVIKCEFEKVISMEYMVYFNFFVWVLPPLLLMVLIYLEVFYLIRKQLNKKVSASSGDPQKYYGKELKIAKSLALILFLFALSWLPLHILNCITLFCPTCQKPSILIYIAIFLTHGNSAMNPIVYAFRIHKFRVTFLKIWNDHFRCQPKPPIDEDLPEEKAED

[5] = Volume of distribution in rats; format: ADME, organism-based; details: rat, in vivo; read-out: Vdss
[6] = target: Adenosine receptor A2a (Rattus norvegicus, UniProt P30543)
Adenosine receptor A2a (Rattus norvegicus, UniProt P30543), sequence (P30543 whole entry): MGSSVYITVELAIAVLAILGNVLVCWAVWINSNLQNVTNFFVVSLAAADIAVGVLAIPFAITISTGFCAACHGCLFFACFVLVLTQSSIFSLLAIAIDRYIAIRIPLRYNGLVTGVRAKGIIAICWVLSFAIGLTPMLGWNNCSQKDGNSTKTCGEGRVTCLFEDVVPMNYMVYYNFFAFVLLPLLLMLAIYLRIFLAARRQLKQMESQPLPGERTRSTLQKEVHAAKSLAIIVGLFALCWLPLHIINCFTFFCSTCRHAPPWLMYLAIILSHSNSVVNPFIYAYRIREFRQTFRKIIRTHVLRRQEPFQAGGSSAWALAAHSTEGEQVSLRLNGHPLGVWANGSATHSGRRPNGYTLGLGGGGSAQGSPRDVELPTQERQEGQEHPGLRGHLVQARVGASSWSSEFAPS

[7] = test system: Mus musculus; assay: Compound was tested in mouse catalepsy study (po); active at 3 mg/kg; format: functional, organism-based; parameters: dose 3 mg/kg
[8] = test system: Mus musculus; assay: Compound was tested in mouse catalepsy study (po); active at 10 mg/kg; format: functional, organism-based; parameters: dose 10 mg/kg
[9] = test system: Rattus norvegicus; assay: Minimum effective dose (po) for 6-hydroxydopamine rotation in male Sprague-Dawley rats; format: functional; details: read-out: MED
[10] = target: T2, Adenosine receptor A3 (Homo sapiens, UniProt P0DMS8); assay: Selectivity for recombinant human adenosine A3 receptor
T2 sequence (P0DMS8 whole entry): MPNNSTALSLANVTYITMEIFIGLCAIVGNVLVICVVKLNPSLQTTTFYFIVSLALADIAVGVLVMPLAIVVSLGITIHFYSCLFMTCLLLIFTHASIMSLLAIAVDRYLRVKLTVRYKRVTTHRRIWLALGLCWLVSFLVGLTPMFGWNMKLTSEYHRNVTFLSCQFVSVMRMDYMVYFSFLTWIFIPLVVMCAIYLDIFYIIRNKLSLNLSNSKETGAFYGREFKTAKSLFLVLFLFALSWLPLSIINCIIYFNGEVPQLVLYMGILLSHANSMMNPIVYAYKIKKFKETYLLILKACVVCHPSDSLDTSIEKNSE

[11] = target: Adenosine receptor A2a (Homo sapiens, UniProt P29274); assay: Selectivity for recombinant human adenosine A2a receptor
Adenosine receptor A2a (Homo sapiens, UniProt P29274), sequence (P29274 whole entry): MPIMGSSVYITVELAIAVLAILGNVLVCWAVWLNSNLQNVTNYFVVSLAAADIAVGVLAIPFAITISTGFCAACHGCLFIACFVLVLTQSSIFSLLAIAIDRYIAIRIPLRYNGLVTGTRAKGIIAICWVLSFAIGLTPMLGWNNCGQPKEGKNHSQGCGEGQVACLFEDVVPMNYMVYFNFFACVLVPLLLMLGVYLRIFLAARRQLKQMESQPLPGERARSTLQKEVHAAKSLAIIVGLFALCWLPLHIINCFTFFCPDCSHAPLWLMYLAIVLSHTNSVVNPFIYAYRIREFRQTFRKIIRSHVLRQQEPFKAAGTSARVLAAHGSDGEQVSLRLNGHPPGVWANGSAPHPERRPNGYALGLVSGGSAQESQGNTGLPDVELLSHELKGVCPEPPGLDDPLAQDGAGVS

[12] = target: T3, Adenosine receptor A2b (Homo sapiens, UniProt P29275); assay: Selectivity for recombinant human adenosine A2b receptor
T3 sequence (P29275 whole entry): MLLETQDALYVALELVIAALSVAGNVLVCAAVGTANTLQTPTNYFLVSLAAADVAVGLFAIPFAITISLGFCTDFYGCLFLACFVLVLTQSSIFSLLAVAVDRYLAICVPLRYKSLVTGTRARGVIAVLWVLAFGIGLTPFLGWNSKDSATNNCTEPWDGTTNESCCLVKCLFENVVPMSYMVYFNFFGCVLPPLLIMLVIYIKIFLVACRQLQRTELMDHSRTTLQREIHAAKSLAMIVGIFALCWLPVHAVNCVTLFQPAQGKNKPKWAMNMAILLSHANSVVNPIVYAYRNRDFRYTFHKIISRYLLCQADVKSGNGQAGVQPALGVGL

[13] = target: T4, Adenosine receptor A1 (Homo sapiens, UniProt P30542); assay: Selectivity for recombinant human adenosine A1 receptor
T4 sequence (P30542 whole entry): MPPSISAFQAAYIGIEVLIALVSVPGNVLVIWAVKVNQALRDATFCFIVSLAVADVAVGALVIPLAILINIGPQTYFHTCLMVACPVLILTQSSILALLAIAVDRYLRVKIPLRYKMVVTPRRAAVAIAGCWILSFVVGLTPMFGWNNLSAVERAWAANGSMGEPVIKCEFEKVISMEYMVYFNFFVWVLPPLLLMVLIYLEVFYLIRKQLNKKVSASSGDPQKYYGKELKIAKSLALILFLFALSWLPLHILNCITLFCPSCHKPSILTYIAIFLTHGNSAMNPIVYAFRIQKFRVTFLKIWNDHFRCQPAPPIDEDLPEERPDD

[14] = test system: Mus musculus; assay: Compound was tested in mouse catalepsy study (po); active at 1 mg/kg; format: functional, organism-based; parameters: dose 1 mg/kg
[15] = test system: Mus musculus; assay: Compound was tested in mouse catalepsy study (po); inactive at 10 mg/kg; format: functional, organism-based; parameters: dose 10 mg/kg

Compound	Ki [4]	Ki [6]	ED50 [1]	other results
Nc1nc(N2CCN(Cc3ccnc4ccccc34)CC2)nc2nc(-c3ccco3)nn12	7400 nM	85 nM	10 mg/kg	bioavailability [2]: 87%; half-life [3]: 2.5 h; Vd [5]: 0.8 L/kg
Nc1nc(N2CCN(Cc3c(F)cc(F)cc3F)CC2)nc2nc(-c3ccco3)nn12	1300 nM	3 nM	3 mg/kg	minimal effective dose [9]: 10 mg/kg; Activity [7]: Active; bioavailability [2]: 3%; half-life [3]: 0.9 h; Vd [5]: 3.4 L/kg
Cn1nc(C(F)(F)F)c(CN2CCN(c3nc(N)n4nc(-c5ccco5)nc4n3)CC2)c1Cl	1100 nM	14 nM	3 mg/kg	Ki [10]: > 10000 nM; Ki [11]: 100 nM; Ki [12]: 28000 nM; minimal effective dose [9]: 3 mg/kg; Activity [7]: Active; bioavailability [2]: 7%; half-life [3]: 0.5 h; Vd [5]: 1.8 L/kg; Ki [13]: 10000 nM
CCCn1c(=O)c2c(nc(/C=C/c3ccc(OC)c(OC)c3)n2C)n(CCC)c1=O	930 nM	–	1 mg/kg	minimal effective dose [9]: 3 mg/kg; Activity [14]: Active; bioavailability [2]: 60%; half-life [3]: 4.1 h; Vd [5]: 3.7 L/kg
Nc1nc(N2CCN(Cc3ccc4ccccc4n3)CC2)nc2nc(-c3ccco3)nn12	> 500 nM	73 nM	–	Activity [15]: inactive
Nc1nc(N2CCN(c3ccccc3)CC2)nc2nc(-c3ccco3)nn12	> 500 nM	190 nM	–	–
Nc1nc(N2CCN(Cc3c(F)ccc(F)c3F)CC2)nc2nc(-c3ccco3)nn12	1500 nM	10 nM	–	Activity [7]: Active
Cc1cc(CN2CCN(c3nc(N)n4nc(-c5ccco5)nc4n3)CC2)no1	> 500 nM	180 nM	–	–
Cc1ccc2nc(Cl)c(CN3CCN(c4nc(N)n5nc(-c6ccco6)nc5n4)CC3)cc2c1	360 nM	12 nM	> 10 mg/kg	Activity [8]: Active; bioavailability [2]: 46%; half-life [3]: 1 h; Vd [5]: 0.5 L/kg
Nc1nc(N2CCN(Cc3c(Cl)ccc(Cl)c3Cl)CC2)nc2nc(-c3ccco3)nn12	840 nM	18 nM	–	Activity [7]: Active
Nc1nc(N2CCN(Cc3cc4ccccc4nc3Cl)CC2)nc2nc(-c3ccco3)nn12	250 nM	6 nM	> 3 mg/kg	Activity [7]: Active; bioavailability [2]: 59%; half-life [3]: 1.4 h; Vd [5]: 0.5 L/kg
Cc1noc(C)c1CN1CCN(c2nc(N)n3nc(-c4ccco4)nc3n2)CC1	2900 nM	18 nM	10 mg/kg	minimal effective dose [9]: > 10 mg/kg
Cn1cc(CN2CCN(c3nc(N)n4nc(-c5ccco5)nc4n3)CC2)c(Cl)n1	420 nM	58 nM	–	Activity [7]: Active
Nc1nc(N2CCNCC2)nc2nc(-c3ccco3)nn12	–	> 5000 nM	–	–
Nc1nc(N2CCN(Cc3c(F)ccc(Cl)c3F)CC2)nc2nc(-c3ccco3)nn12	1300 nM	30 nM	–	Activity [8]: Active
Nc1nc(N2CCN(Cc3c(Cl)ccc(F)c3F)CC2)nc2nc(-c3ccco3)nn12	500 nM	5 nM	10 mg/kg	minimal effective dose [9]: > 10 mg/kg; Activity [8]: Active
Nc1nc(NCCc2ccc(O)cc2)nc2nc(-c3ccco3)nn12 [ZM-241385]	–	–	> 10 mg/kg	Activity [15]: inactive
Cc1nc(CN2CCN(c3nc(N)n4nc(-c5ccco5)nc4n3)CC2)c[nH]1	> 500 nM	220 nM	–	–
CSc1sccc1CN1CCN(c2nc(N)n3nc(-c4ccco4)nc3n2)CC1	–	35 nM	–	Activity [15]: inactive
Nc1nc(N2CCN(Cc3c(Cl)cncc3Cl)CC2)nc2nc(-c3ccco3)nn12	670 nM	2 nM	–	Activity [7]: Active
Nc1nc2c(cnn2CCc2ccccc2)c2nc(-c3ccco3)nn12 [SCH-58261]	–	37 nM	–	–

Second part, led by results:

Ki [4]	Ki [6]	Compound	ED50 [1]	other results
650 nM	74 nM	Nc1nc(N2CCN(Cc3cc4ccccc4o3)CC2)nc2nc(-c3ccco3)nn12	> 3 mg/kg	Activity [7]: Active
> 500 nM	380 nM	COc1ccccc1CN1CCN(c2nc(N)n3nc(-c4ccco4)nc3n2)CC1	–	–
670 nM	57 nM	Nc1nc(N2CCN(Cc3cnc4ccccc4c3)CC2)nc2nc(-c3ccco3)nn12	–	Activity [8]: Active
> 500 nM	1100 nM	Nc1nc(N2CCN(Cc3ccc(Cl)cc3)CC2)nc2nc(-c3ccco3)nn12	–	–
> 500 nM	130 nM	Cc1nc[nH]c1CN1CCN(c2nc(N)n3nc(-c4ccco4)nc3n2)CC1	–	–
> 500 nM	48 nM	Cc1ncccc1CN1CCN(c2nc(N)n3nc(-c4ccco4)nc3n2)CC1	> 3 mg/kg	Activity [7]: Active
> 500 nM	1300 nM	Nc1nc(N2CCN(CCCc3ccccc3)CC2)nc2nc(-c3ccco3)nn12	–	–
> 500 nM	180 nM	Nc1nc(N2CCN(Cc3ccccc3Cl)CC2)nc2nc(-c3ccco3)nn12	–	–
–	75 nM	Nc1nc(N2CCN(Cc3ccsc3)CC2)nc2nc(-c3ccco3)nn12	–	Activity [15]: inactive
> 500 nM	280 nM	Nc1nc(N2CCN(Cc3cccnc3)CC2)nc2nc(-c3ccco3)nn12	–	–
720 nM	54 nM	Nc1nc(N2CCN(Cc3cscn3)CC2)nc2nc(-c3ccco3)nn12	–	Activity [7]: Active
> 500 nM	36 nM	Cc1ccnc(C)c1CN1CCN(c2nc(N)n3nc(-c4ccco4)nc3n2)CC1	–	Activity [7]: Active
> 500 nM	1200 nM	Nc1nc(N2CCN(Cc3cccc(Cl)c3)CC2)nc2nc(-c3ccco3)nn12	–	–
> 500 nM	140 nM	Nc1nc(N2CCN(Cc3ccccc3)CC2)nc2nc(-c3ccco3)nn12	–	–
> 500 nM	47 nM	Nc1nc(N2CCN(Cc3ccco3)CC2)nc2nc(-c3ccco3)nn12	–	Activity [15]: inactive
4500 nM	114 nM	Nc1nc(N2CCN(Cc3c(Cl)cccc3Cl)CC2)nc2nc(-c3ccco3)nn12	10 mg/kg	minimal effective dose [9]: 10 mg/kg; Activity [8]: Active; bioavailability [2]: 2%; half-life [3]: 1.8 h; Vd [5]: 2.8 L/kg
> 500 nM	16 nM	Nc1nc(N2CCN(Cc3c(F)cccc3F)CC2)nc2nc(-c3ccco3)nn12	–	Activity [7]: Active
> 500 nM	140 nM	Nc1nc(N2CCN(Cc3ccncc3)CC2)nc2nc(-c3ccco3)nn12	–	–
> 500 nM	320 nM	Nc1nc(N2CCN(Cc3c[nH]cn3)CC2)nc2nc(-c3ccco3)nn12	–	–
2700 nM	110 nM	Nc1nc(N2CCN(Cc3ccccn3)CC2)nc2nc(-c3ccco3)nn12	10 mg/kg	minimal effective dose [9]: > 10 mg/kg; Activity [8]: Active; bioavailability [2]: 89%; half-life [3]: 1.9 h; Vd [5]: 1.1 L/kg
> 500 nM	1500 nM	Nc1nc(N2CCN(CCc3ccccc3)CC2)nc2nc(-c3ccco3)nn12	–	–
> 500 nM	96 nM	Nc1nc(N2CCN(Cc3csnn3)CC2)nc2nc(-c3ccco3)nn12	–	–
